How the values were obtained:
[1] = target: T1, IRAK4 (Homo sapiens (Human), UniProt Q9NWZ3); test: IRAK4 Degradation HiBiT Assay; settings: multiple runs, HiBiT-tagged Jurkat cells, 4 hrs; for Dmax: Jurkat, read-out: Cellular IRAK4 HiBiT: Dmax, Table 5; for DC50: read-out: Cellular IRAK4 HiBiT: DC50, Table 5
Target sequence in this assay (Q9NWZ3 whole entry): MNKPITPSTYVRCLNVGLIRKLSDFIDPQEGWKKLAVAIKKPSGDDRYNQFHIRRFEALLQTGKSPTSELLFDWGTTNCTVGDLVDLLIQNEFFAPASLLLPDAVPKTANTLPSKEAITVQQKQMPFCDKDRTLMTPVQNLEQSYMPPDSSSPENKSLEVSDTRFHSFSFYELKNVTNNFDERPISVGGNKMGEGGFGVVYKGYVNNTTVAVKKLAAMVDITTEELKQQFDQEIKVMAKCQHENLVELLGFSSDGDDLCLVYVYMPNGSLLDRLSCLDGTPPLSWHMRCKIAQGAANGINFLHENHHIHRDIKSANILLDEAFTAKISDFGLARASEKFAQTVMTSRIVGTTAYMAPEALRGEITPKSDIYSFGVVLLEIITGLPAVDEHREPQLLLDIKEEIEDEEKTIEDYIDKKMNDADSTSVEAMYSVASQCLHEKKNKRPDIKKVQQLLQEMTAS

[2] = target: T1, IRAK4; test: IRAK4 Biochemical HTRF Kinase Assay; settings: Table 5; multiple runs; read-out: IRAK4 HTRF biochemical: IC50
How it was run: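 IC50 values derive from non-linear regression of sixteen concentrations in duplicate. Kinase reaction ran 90 min at ambient temperature after adding 5 μM STK-S1 substrate, 10 mM ATP and 10 mM MgCl2 (reaction-solution levels, pre-dilution to 10 μl); phospho-peptide detected by HTRF after 60 min.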
Target sequence in this assay (Q9NWZ3 whole entry, species assumed): as the sequence (Q9NWZ3 whole entry) above

SMILES | Dmax [1] [%] | DC50 [1] [nM] | IC50 [2] [nM]
CNc1cc(-c2ccc3cc(C#N)cnn23)ncc1-c1nnc(N2CCN(C3CCN(C(=O)Cc4ccc5c(c4)CN(C4CCC(=O)NC4=O)C5=O)CC3)CC2)s1 (stereo not drawn) [Example 100, 7-(5-(5-(4-(1-(2-(2-(2,6-dioxopiperidin-3-yl)-1-oxoisoindolin-5-yl)acetyl)piperidin-4-yl)piperazin-1-yl)-1,3,4-thiadiazol-2-yl)-4-(methylamino)pyridin-2-yl)pyrrolo[1,2-b]pyridazine-3-carbonitrile] | 111 | 4.41 | 0.4
CNc1cc(-c2ccc3cc(C#N)cnn23)ncc1-c1nnc([C@H]2CC[C@H](NC(=O)C34CC(C(=O)N[C@H](C(=O)N5C[C@H](O)C[C@H]5C(=O)N[C@@H](C)c5ccc(-c6scnc6C)cc5)C(C)(C)C)(C3)C4)CC2)s1 [Example 101, N1-((1r,4S)-4-(5-(6-(3-cyanopyrrolo[1,2-b]pyridazin-7-yl)-4-(methylamino)pyridin-3-yl)-1,3,4-thiadiazol-2-yl)cyclohexyl)-N3-((S)-1-((2S,4R)-4-hydroxy-2-(((S)-1-(4-(4-methylthiazol-5-yl)phenyl)ethyl)carbamoyl)pyrrolidin-1-yl)-3,3-dimethyl-1-oxobutan-2-yl)bicyclo[1.1.1]pentane-1,3-dicarboxamide] | 117 | 42.2 | 2.4
CNc1cc(-c2ccc3cc(C#N)cnn23)ncc1-c1nnc(C23CCC(NC(=O)CCOCCNc4ccc5c(c4)C(=O)N(C4CCC(=O)NC4=O)C5=O)(CC2)CC3)s1 (stereo not drawn) [Example 102, N-(4-(5-(6-(3-cyanopyrrolo[1,2-b]pyridazin-7-yl)-4-(methylamino)pyridin-3-yl)-1,3,4-thiadiazol-2-yl)bicyclo[2.2.2]octan-1-yl)-3-(2-((2-(2,6-dioxopiperidin-3-yl)-1,3-dioxoisoindolin-5-yl)amino)ethoxy)propanamide] | 91 | 25.3 | 0.8
CNc1cc(-c2ccc3cc(C#N)cnn23)ncc1-c1nnc(C23CCC(NC(=O)C4CN(C5CCN(c6ccc7c(c6)C(=O)N(C6CCC(=O)NC6=O)C7=O)CC5)C4)(CC2)CC3)s1 (stereo not drawn) [Example 103, N-(4-(5-(6-(3-cyanopyrrolo[1,2-b]pyridazin-7-yl)-4-(methylamino)pyridin-3-yl)-1,3,4-thiadiazol-2-yl)bicyclo[2.2.2]octan-1-yl)-1-(1-(2-(2,6-dioxopiperidin-3-yl)-1,3-dioxoisoindolin-5-yl)piperidin-4-yl)azetidine-3-carboxamide] | 99 | 73.3 | 1
CNc1cc(-c2ccc3cc(C#N)cnn23)ncc1-c1nnc(C23CCC(NC(=O)CN4CCC5(CC4)CN(c4ccc6c(c4)C(=O)N(C4CCC(=O)NC4=O)C6=O)C5)(CC2)CC3)s1 (stereo not drawn) [Example 104, N-(4-(5-(6-(3-cyanopyrrolo[1,2-b]pyridazin-7-yl)-4-(methylamino)pyridin-3-yl)-1,3,4-thiadiazol-2-yl)bicyclo[2.2.2]octan-1-yl)-2-(2-(2-(2,6-dioxopiperidin-3-yl)-1,3-dioxoisoindolin-5-yl)-2,7-diazaspiro[3.5]nonan-7-yl)acetamide] | 77 | 49.9 | 1.5
CNc1cc(-c2ccc3cc(C#N)cnn23)ncc1-c1nnc(C23CCC(NC(=O)CN4CCN(c5ccc6c(c5)C(=O)N(C5CCC(=O)NC5=O)C6=O)CC4)(CC2)CC3)s1 (stereo not drawn) [Example 105, N-(4-(5-(6-(3-cyanopyrrolo[1,2-b]pyridazin-7-yl)-4-(methylamino)pyridin-3-yl)-1,3,4-thiadiazol-2-yl)bicyclo[2.2.2]octan-1-yl)-2-(4-(2-(2,6-dioxopiperidin-3-yl)-1,3-dioxoisoindolin-5-yl)piperazin-1-yl)acetamide] | 106 | 39.8 | 1.2
CNc1cc(-c2ccc3cc(C#N)cnn23)ncc1-c1nnc(C23CCC(NC(=O)CCCCCNc4cccc5c4C(=O)N(C4CCC(=O)NC4=O)C5=O)(CC2)CC3)s1 (stereo not drawn) [Example 106, N-(4-(5-(6-(3-cyanopyrrolo[1,2-b]pyridazin-7-yl)-4-(methylamino)pyridin-3-yl)-1,3,4-thiadiazol-2-yl)bicyclo[2.2.2]octan-1-yl)-6-((2-(2,6-dioxopiperidin-3-yl)-1,3-dioxoisoindolin-4-yl)amino)hexanamide] | 45 | 43.8 | 2
CNc1cc(-c2ccc3cc(C#N)cnn23)ncc1-c1nnc(C23CCC(NC(=O)CCCCCCCNc4ccc5c(c4)C(=O)N(C4CCC(=O)NC4=O)C5=O)(CC2)CC3)s1 (stereo not drawn) [Example 107, N-(4-(5-(6-(3-cyanopyrrolo[1,2-b]pyridazin-7-yl)-4-(methylamino)pyridin-3-yl)-1,3,4-thiadiazol-2-yl)bicyclo[2.2.2]octan-1-yl)-8-((2-(2,6-dioxopiperidin-3-yl)-1,3-dioxoisoindolin-5-yl)amino)octanamide] | 44 | 99.7 | 2.6
CNc1cc(-c2ccc3cc(C#N)cnn23)ncc1-c1nnc(C23CCC(NC(=O)CCCCCNc4ccc5c(c4)C(=O)N(C4CCC(=O)NC4=O)C5=O)(CC2)CC3)s1 (stereo not drawn) [Example 108, N-(4-(5-(6-(3-cyanopyrrolo[1,2-b]pyridazin-7-yl)-4-(methylamino)pyridin-3-yl)-1,3,4-thiadiazol-2-yl)bicyclo[2.2.2]octan-1-yl)-6-((2-(2,6-dioxopiperidin-3-yl)-1,3-dioxoisoindolin-5-yl)amino)hexanamide] | 70 | 45.7 | 1.4
CNc1cc(-c2ccc3cc(C#N)cnn23)ncc1-c1nnc(C23CCC(NC(=O)[C@H]4C[C@@H](OCCNc5cccc6c5C(=O)N(C5CCC(=O)NC5=O)C6=O)C4)(CC2)CC3)s1 (stereo partly drawn) [Example 109, (1s,3s)-N-(4-(5-(6-(3-cyanopyrrolo[1,2-b]pyridazin-7-yl)-4-(methylamino)pyridin-3-yl)-1,3,4-thiadiazol-2-yl)bicyclo[2.2.2]octan-1-yl)-3-(2-((2-(2,6-dioxopiperidin-3-yl)-1,3-dioxoisoindolin-4-yl)amino)ethoxy)cyclobutane-1-carboxamide] | 64 | 21.6 | 1.4

Further lines, results first:

Dmax [1] [%] | DC50 [1] [nM] | IC50 [2] [nM] | SMILES
93 | 34.2 | 0.7 | CNc1cc(-c2ccc3cc(C#N)cnn23)ncc1-c1nnc(C23CCC(NC(=O)CCOCCOCCOCCNc4cccc5c4C(=O)N(C4CCC(=O)NC4=O)C5=O)(CC2)CC3)s1 (stereo not drawn) [Example 110, N-(4-(5-(6-(3-cyanopyrrolo[1,2-b]pyridazin-7-yl)-4-(methylamino)pyridin-3-yl)-1,3,4-thiadiazol-2-yl)bicyclo[2.2.2]octan-1-yl)-3-(2-(2-(2-((2-(2,6-dioxopiperidin-3-yl)-1,3-dioxoisoindolin-4-yl)amino)ethoxy)ethoxy)ethoxy)propanamide]
59 | 15.8 | 1.1 | CNc1cc(-c2ccc3cc(C#N)cnn23)ncc1-c1nnc(C23CCC(NC(=O)CCOCCNc4cccc5c4C(=O)N(C4CCC(=O)NC4=O)C5=O)(CC2)CC3)s1 (stereo not drawn) [Example 111, N-(4-(5-(6-(3-cyanopyrrolo[1,2-b]pyridazin-7-yl)-4-(methylamino)pyridin-3-yl)-1,3,4-thiadiazol-2-yl)bicyclo[2.2.2]octan-1-yl)-3-(2-((2-(2,6-dioxopiperidin-3-yl)-1,3-dioxoisoindolin-4-yl)amino)ethoxy)propenamide]
57 | 171 | 10.2 | CNc1cc(-c2ccc3cc(C#N)cnn23)ncc1-c1nnc([C@H]2CC[C@@H](NC(=O)CCCCCCCNc3ccc4c(c3)C(=O)N(C3CCC(=O)NC3=O)C4=O)CC2)s1 (stereo partly drawn) [Example 112, N-((1s,4s)-4-(5-(6-(3-cyanopyrrolo[1,2-b]pyridazin-7-yl)-4-(methylamino)pyridin-3-yl)-1,3,4-thiadiazol-2-yl)cyclohexyl)-8-((2-(2,6-dioxopiperidin-3-yl)-1,3-dioxoisoindolin-5-yl)amino)octanamide]
76 | 32 | 1.2 | CNc1cc(-c2ccc3cc(C#N)cnn23)ncc1-c1nnc([C@H]2CC[C@@H](NC(=O)[C@H]3C[C@@H](OCCNc4cccc5c4C(=O)N(C4CCC(=O)NC4=O)C5=O)C3)CC2)s1 (stereo partly drawn) [Example 113, (1s,3S)—N-((1s,4S)-4-(5-(6-(3-cyanopyrrolo[1,2-b]pyridazin-7-yl)-4-(methylamino)pyridin-3-yl)-1,3,4-thiadiazol-2-yl)cyclohexyl)-3-(2-((2-(2,6-dioxopiperidin-3-yl)-1,3-dioxoisoindolin-4-yl)amino)ethoxy)cyclobutane-1-carboxamide]
82 | 72.6 | 2.9 | CNc1cc(-c2ccc3cc(C#N)cnn23)ncc1-c1nnc([C@H]2CC[C@@H](NC(=O)CCCCCNc3ccc4c(c3)C(=O)N(C3CCC(=O)NC3=O)C4=O)CC2)s1 (stereo partly drawn) [Example 114, N-((1s,4s)-4-(5-(6-(3-cyanopyrrolo[1,2-b]pyridazin-7-yl)-4-(methylamino)pyridin-3-yl)-1,3,4-thiadiazol-2-yl)cyclohexyl)-6-((2-(2,6-dioxopiperidin-3-yl)-1,3-dioxoisoindolin-5-yl)amino)hexanamide]
78 | 44.7 | 2.2 | CNc1cc(-c2ccc3cc(C#N)cnn23)ncc1-c1nnc([C@H]2CC[C@@H](NC(=O)CCOCCNc3ccc4c(c3)C(=O)N(C3CCC(=O)NC3=O)C4=O)CC2)s1 (stereo partly drawn) [Example 115, N-((1s,4s)-4-(5-(6-(3-cyanopyrrolo[1,2-b]pyridazin-7-yl)-4-(methylamino)pyridin-3-yl)-1,3,4-thiadiazol-2-yl)cyclohexyl)-3-(2-((2-(2,6-dioxopiperidin-3-yl)-1,3-dioxoisoindolin-5-yl)amino)ethoxy)propanamide]
